Consider six compounds from patent US6087334A, “Anti-diabetic peptides” (Amylin Pharmaceuticals, Inc., priority 1998, dated 2000).

Structures are written as SMILES. Where a SMILES comes first, the peptide text is derived from it. Bridges are numbered along the chain shown (N, C = ends).

Assay [1] has as its target T1, C1a receptor (C1a-type calcitonin receptor) (Rattus norvegicus, UniProt P32214).
T1 construct: expressed in transfected cells
T1 sequence (P32214 25-479 isoform P32214-2 limits assumed): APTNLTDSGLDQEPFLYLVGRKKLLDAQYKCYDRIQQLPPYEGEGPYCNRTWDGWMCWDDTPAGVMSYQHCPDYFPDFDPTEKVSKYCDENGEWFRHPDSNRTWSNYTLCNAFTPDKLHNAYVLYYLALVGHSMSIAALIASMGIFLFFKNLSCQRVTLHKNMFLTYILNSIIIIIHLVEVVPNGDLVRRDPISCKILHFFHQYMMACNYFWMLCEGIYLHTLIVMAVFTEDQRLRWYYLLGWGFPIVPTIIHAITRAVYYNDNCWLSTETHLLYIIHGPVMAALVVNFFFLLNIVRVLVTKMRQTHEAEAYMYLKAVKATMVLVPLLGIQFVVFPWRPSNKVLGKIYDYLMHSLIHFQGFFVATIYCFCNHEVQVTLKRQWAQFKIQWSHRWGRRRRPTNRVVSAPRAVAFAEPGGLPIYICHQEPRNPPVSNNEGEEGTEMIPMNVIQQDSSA
The assay is described as follows: C1a/293 competitive binding, displacement of [125I]-human calcitonin (Example C). The note with it: HEK293 plasma membranes (C1a/293), [125I]-human calcitonin 20 pM. The procedure: Peptide compounds of the present invention may be evaluated for binding to the C1a receptor using the procedures described in Example C. The C1a receptor is the predominant mammalian calcitonin receptor subtype. C1a pcDNA construction and transfection were carried out as previously described (Albrandt et al. 1993, FEBS Letters, 325:225-232). HEK293 cell lines showing stable expression of the rat C1a-type calcitonin receptor (C1a/293) or the human C1a-type calcitonin receptor (1154/293) were selected by G418 resistance and limiting dilution culture methods. Plasma membranes were collected from homogenized HEK293 cells and used in the receptor binding assay. Individual test peptides at concentrations spanning 6 log units starting at around 10^-6 M were examined for their ability to displace [^125 I]-human calcitonin from the plasma membrane preparation using a 96-well microtiter plate format and scintillation counting with a Wallac LKB Beta plate counter. Competitive binding curves were constructed. Non-specific binding was measured in the presence of 100 nM calcitonin. Peptide potencies (IC50 's for competitive binding) were calculated by non-linear regression using Prism™ (version 2.01, GraphPAD Software, San Diego, Calif.).
C1a/293 Competitive Binding Studies:
Compounds were evaluated for competition in binding to the C1a receptor as follows:
(§1) Reference peptides used in these studies were purchased from Bachem (Torrance, Calif.). All other chemicals were of the highest commercial grade. [^35 S]-GTPγS was purchased from NEN Life Science Products, Inc., Pittsburgh, Pa. [^125 I]-human calcitonin was purchased from Amersham Pharmacia Biotech, Inc., Piscataway, N.J.
Methods for C1a pcDNA construction and transfection have been previously described (Albrandt, et al. 1993). HEK293 cell lines stably expressing the rat C1a-type calcitonin receptor (C1a/293) or the human C1a-type calcitonin receptor (1154/293) were selected by G418 resistance and limiting dilution culture methods.
(§2) Confluent cells were detached from tissue culture flasks by incubation with 5 mM EDTA in PBS. Cells were homogenized in ice-cold 20 mM HEPES, pH 7.4 with a Polytron homogenizer. Plasma membranes were collected using three cycles of washing in fresh buffer followed by centrifugation for 15 minutes at 48,000×g. The final membrane pellet was resuspended in 20 mM HEPES buffer containing 0.2 mM phenylmethylsulfonyl fluoride (PMSF) and stored at -70° C.
Assay buffer contained 5 μg/mL bestatin, 1 μg/mL phosphoramidon, 1 mg/mL bovine serum albumin (fraction V), 1 mg/mL bacitracin, 1 mM MgCl2, and 20 mM HEPES, pH 7.4. Membranes (2-5 μg membrane protein/well), [^125 I]-human calcitonin (20 pM), and peptides were combined in 200 μL buffer in 96-well microtiter plates. After a 60 minute incubation at room temperature, well contents were harvested onto polyethyleneimine-treated GF/B glass fiber pads using a Tomtec Mach II plate harvestor (Hamden, Conn.). Dried pads were combined with scintillant and counted on a Wallac LKB Beta Plate scintillation counter (Gaithersburg, Md.). For competitive binding curves, samples were run in duplicate over a 6 log concentration range starting at 10^-6 or 10^-7 M. Non-specific binding was measured in the presence of 100 nM human calcitonin.
Background: Loss of bound radioactivity is the signal in a displacement assay; it reports binding, not function.

Assay [2] concerns the target T1, C1a receptor (C1a-type calcitonin receptor). The assay is described as follows: biochemical. The note with it: HEK293 plasma membranes, [35S]-GTPγS 200 pM; read-out: ED50 (nM) Example B (C1a GTPγS).
From the text: Peptide compounds of the present invention may be evaluated for agonist activity using the procedures described in Example B. The plasma membrane preparation of a 7-transmembrane-G-protein coupled receptor (GPCR) contains not only the receptor but also the G-proteins which constitute the first step in the intracellular signal transduction process when the receptor is activated by an agonist ligand. […] Agonist activation of a GPCR is accompanied by displacement of GDP by GTP from this site. Thus, measurement of the binding of a radiolabelled ligand, namely [^35 S]-GTPγS, for this binding site constitutes a measure of agonist potency for a given ligand. For agonism at the C1a receptor, a similar membrane preparation to that described below for the C1a binding studies is used. C1a pcDNA construction and transfection were carried out as previously described (Albrandt et al. 1993, FEBS Letters, 325:225-232). HEK293 cell lines showing stable expression of the rat C1a-type calcitonin receptor (C1a/293) or the human C1a-type calcitonin receptor (1154/293) were selected by G418 resistance and limiting dilution culture methods. Plasma membranes were collected from homogenized HEK293 cells and used in the [^35 S]-GTPγS assay. Individual test peptides at concentrations spanning 6 log units starting at around […] were examined for their ability to bind [^35 S]-GTPγS. Maximum agonist-specific binding was measured in the presence of 1 μM human calcitonin, constitutive binding was measured in the presence of buffer alone. Peptide potencies (EC50 's for concentration response curves) were calculated by non-linear regression using Prism™ (version 2.01, GraphPAD Software, San Diego, Calif.).
[^35 S]-GTPγS C1a Agonist Studies
Evaluation of the agonist activity of compounds versus the C1a receptor was carried out as follows:
as §1
Methods for C1a pcDNA construction and transfection have been previously described (Albrandt, et al. 1993, FEBS Letters, 325:225-232). HEK293 cell lines stably expressing the rat C1a-type calcitonin receptor (C1a/293) or the human C1a-type calcitonin receptor (1154/293) were selected by G418 resistance and limiting dilution culture methods.
as §2
Assay buffer contained 1 μM GDP, 1 mM EDTA, 5 mM MgCl2, 20 mM Hepes, and 150 mM NaCl, pH 7.4. Membranes (7.5 μg membrane protein/well), [^35 S]-GTPγS (200 pM), and peptides were combined in 200 μL buffer in 96-well microtiter plates. After a 75 minute incubation at room temperature, well contents were harvested onto GF/B glass fiber pads using a Tomtec Mach II plate harvestor (Hamden, Conn.). Dried pads were combined with scintillant and counted on a Wallac LKB Beta Plate scintillation counter. For concentration response curves, samples were run in duplicate over a 6 log concentration range starting at 10^-6 M or 10^-7 M. Maximum agonist-specific binding was measured in the presence of 1 μM human calcitonin, constitutive binding was measured in the presence of buffer alone.
Peptide potencies (1C50 's for competitive binding, and EC50 's for concentration response curves) were calculated by non-linear regression using Prism (version 2.01, GraphPAD Software, San Diego, Calif.).
(In general: Binding of GTPγS marks nucleotide exchange on a G protein.)

One may read the IC50 as the concentration that inhibits the measured activity by half. On to `CC(C)C[C@H](NC(=O)[C@H](CCCNC(=N)N)NC(=O)[C@H](CCC(N)=O)NC(=O)[C@@H](NC(=O)[C@H](C)NC(=O)[C@@H]1CSSC[C@H](NC(=O)[C@@H](N)CCCCN)C(=O)N[C@@H](CC(N)=O)C(=O)N[C@@H]([C@@H](C)O)C(=O)N[C@@H](C)C(=O)N[C@@H]([C@@H](C)O)C(=O)N1)[C@@H](C)O)C(=O)N[C@@H](C)C(=O)N[C@@H](CC(N)=O)C(=O)N[C@@H](Cc1ccccc1)C(=O)N[C@@H](CC(C)C)C(=O)N[C@H](C(=O)N[C@@H](CCCNC(=N)N)C(=O)N[C@@H](CO)C(=O)N[C@@H](CO)C(=O)NCC(=O)N[C@@H](Cc1ccc(O)cc1)C(N)=O)C(C)C` [Example 14] (H-KCNTATCATQRLANFLVRSSGY-NH2; disulfide 2-7), for which the IC50 in assay [1] is 18 nM. For the same compound, the EC50 in assay [2] is 90 nM.
With `CC(C)C[C@H](NC(=O)[C@H](CCCNC(=N)N)NC(=O)[C@H](CCC(N)=O)NC(=O)[C@@H](NC(=O)[C@H](C)NC(=O)[C@@H]1CSSC[C@H](NC(=O)[C@@H](N)CCCCN)C(=O)N[C@@H](CC(N)=O)C(=O)N[C@@H]([C@@H](C)O)C(=O)N[C@@H](C)C(=O)N[C@@H]([C@@H](C)O)C(=O)N1)[C@@H](C)O)C(=O)N[C@@H](C)C(=O)N[C@@H](CC(N)=O)C(=O)N[C@@H](Cc1ccccc1)C(=O)N[C@@H](CC(C)C)C(=O)N[C@H](C(=O)N[C@@H](CCCNC(=N)N)C(=O)N[C@@H](CO)C(=O)N[C@@H](C)C(=O)NCC(=O)N[C@@H](Cc1ccc(O)cc1)C(N)=O)C(C)C` [Example 15] (H-KCNTATCATQRLANFLVRSAGY-NH2; disulfide 2-7), the IC50 in assay [1] came out at 18 nM. For the same compound, in assay [2], the EC50 was 21 nM.
For `CC(C)C[C@H](NC(=O)[C@H](CCCNC(=N)N)NC(=O)[C@H](CCC(N)=O)NC(=O)[C@@H](NC(=O)[C@H](C)NC(=O)[C@@H]1CSSC[C@H](N)C(=O)N[C@@H](CC(N)=O)C(=O)N[C@@H]([C@@H](C)O)C(=O)N[C@@H](C)C(=O)N[C@@H]([C@@H](C)O)C(=O)N1)[C@@H](C)O)C(=O)N[C@@H](C)C(=O)N[C@@H](CC(N)=O)C(=O)N[C@@H](Cc1ccccc1)C(=O)N[C@@H](CC(C)C)C(=O)N[C@H](C(=O)N[C@@H](CCCNC(=N)N)C(=O)N[C@@H](CO)C(=O)N[C@@H](CO)C(=O)NCC(=O)N[C@@H](Cc1ccc(O)cc1)C(N)=O)C(C)C` [Example 13] (H-CNTATCATQRLANFLVRSSGY-NH2; disulfide 1-6), in that order: 12 nM and 19 nM.
Regarding `CC(C)C[C@H](NC(=O)[C@H](CCCNC(=N)N)NC(=O)[C@H](C)NC(=O)[C@@H](NC(=O)[C@H](C)NC(=O)[C@@H]1CSSC[C@H](N)C(=O)N[C@@H](CC(N)=O)C(=O)N[C@@H]([C@@H](C)O)C(=O)N[C@@H](C)C(=O)N[C@@H]([C@@H](C)O)C(=O)N1)[C@@H](C)O)C(=O)N[C@@H](C)C(=O)N[C@@H](C)C(=O)N[C@@H](Cc1ccccc1)C(=O)N[C@@H](CC(C)C)C(=O)N[C@@H](C)C(=O)N[C@@H](CCCNC(=N)N)C(N)=O` [Example 7] (H-CNTATCATARLAAFLAR-NH2; disulfide 1-6), the IC50 in assay [1] was found to be 2.7 nM. For the same compound, in assay [2], the EC50 was determined as 2.2 nM.
For `CC(C)C[C@H](NC(=O)[C@H](CCCNC(=N)N)NC(=O)[C@H](CCC(N)=O)NC(=O)[C@@H](NC(=O)[C@H](C)NC(=O)[C@@H]1CSSC[C@H](NC(=O)[C@@H](N)CCCCN)C(=O)N[C@@H](CC(N)=O)C(=O)N[C@@H]([C@@H](C)O)C(=O)N[C@@H](C)C(=O)N[C@@H]([C@@H](C)O)C(=O)N1)[C@@H](C)O)C(=O)N[C@@H](C)C(=O)N[C@@H](CC(N)=O)C(=O)N[C@@H](Cc1ccccc1)C(=O)N[C@@H](CC(C)C)C(=O)N[C@H](C(=O)N[C@@H](C)C(=O)N[C@@H](CO)C(=O)N[C@@H](CO)C(=O)NCC(=O)N[C@@H](Cc1ccc(O)cc1)C(N)=O)C(C)C` [Example 12] (H-KCNTATCATQRLANFLVASSGY-NH2; disulfide 2-7), in that order: 10 nM and 8 nM.
For `CC(C)C[C@H](NC(=O)[C@H](CCCNC(=N)N)NC(=O)[C@H](CCC(N)=O)NC(=O)[C@@H](NC(=O)[C@H](C)NC(=O)[C@@H]1CSSC[C@H](NC(=O)[C@@H](N)CCCCN)C(=O)N[C@@H](CC(N)=O)C(=O)N[C@@H]([C@@H](C)O)C(=O)N[C@@H](C)C(=O)N[C@@H]([C@@H](C)O)C(=O)N1)[C@@H](C)O)C(=O)N[C@@H](C)C(=O)N[C@@H](C)C(=O)N[C@@H](Cc1ccccc1)C(=O)N[C@@H](CC(C)C)C(=O)N[C@H](C(=O)N[C@@H](CCCNC(=N)N)C(=O)N[C@@H](CO)C(=O)N[C@@H](CO)C(=O)NCC(=O)N[C@@H](Cc1ccc(O)cc1)C(N)=O)C(C)C` [Example 8] (H-KCNTATCATQRLAAFLVRSSGY-NH2; disulfide 2-7), in that order: 3.4 nM and 4.4 nM.
